Data published in patent US20240197726A1, “NOVEL TETRAHYDROISOQUINOLINE ALKALOID COMPOUND CONTAINING MACROCYCLE” (THE UNIVERSITY OF TOKYO, priority 2021, published 2024).
Read-outs that look alike come from different tables or passages of the source.

Legend:
Type in all cases: cell-based
ACHN kidney cancer cells = assay: antitumor activity, sulforhodamine B cell growth assay, ACHN
Outline: (§1)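 Cells grown in RPMI 1640 with 5% FBS, adhered overnight, then exposed to drug for 48 h; growth read by sulforhodamine B absorbance at 525 nm versus time-0 and control wells. Log GI50, Log TGI and Log LC50 taken where the dose-response crossed PG 50%, 0% and −50%, by two-point interpolation.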

[1] = test system: BSY-1 breast cancer cells; assay: antitumor activity, sulforhodamine B cell growth assay, BSY-1
Outline: as §1

[2] = test system: SF-268 central nervous system cancer cells; assay: antitumor activity, sulforhodamine B cell growth assay, SF-268
Experimental: (§2) The THIQ compound containing a macrocyclic structure of the present invention was administered to various cancer cell lines, and the antitumor activity (Go value) was observed. Specifically, verification was performed according to the literature (Yamori, T.; Matsunaga, A.; Sato, S.; Yamazaki, K.; Komi, A.; Ishizu, K. et al. Cancer Res. 1999, 59, 4042) by the following procedure.
(§3) Cells were plated at an appropriate density in a 96-well plate in RPMI 1640 together with 5% fetal bovine serum, and adhered overnight. The cells were exposed to a drug for 48 hours. Then, according to the sulforhodamine B assay described by Skehan et al (Skehan P., Storeng R., Scudiero D., Monks A., McMahon J., Vistica D., Warren J. T., Bokesch H., Kenney S., Boyd M. R. J Natl. Cancer Inst, 1990, 82, 1107-1112), the cell growth rate was measured. The absorbance of the control well (C) and the test well (T) was measured at 525 nm. In addition, the time at which the drug was added was set as time 0, and the absorbance for the test well (T0) was measured. Using these measured values, the cell growth inhibitory effect (% growth=PG) was calculated by the following formula at each concentration of the drug.
(§4) (T<T0): PG=100×[(T−T0)/T]
(§5) The PG values determined above for each cell line were plotted against the concentration (logarithm) on a semi-logarithmic graph, and summarized for each visceral cancer. Concentrations at which the dose-response curve of each cell line crossed the horizontal line of PG=50%, 0%, or −50% were calculated. These concentrations were defined as Log GI50, Log TGI, and Log LC50. Actually, using two data points of the drug concentration before and after crossing each horizontal line, the drug concentration (logarithmic value) at the intersection of the straight line connecting the two points and the horizontal line for each PG was calculated.

[3] = test system: U251 central nervous system cancer cells; assay: antitumor activity, sulforhodamine B cell growth assay, U251
Outline: as §1

[4] = test system: MKN1 gastric cancer cells; assay: antitumor activity, sulforhodamine B cell growth assay, MKN1
Outline: as §1

OVCAR-8 cancer cells = assay: antitumor activity, sulforhodamine B cell growth assay, OVCAR-8
Experimental: as §2, §3, §4, §5

[5] = test system: MKN45 gastric cancer cells; assay: antitumor activity, sulforhodamine B cell growth assay, MKN45
Outline: as §1

[6] = test system: HCC2998 colorectal cancer cells; assay: antitumor activity, sulforhodamine B cell growth assay, HCC2998
Outline: as §1

[7] = test system: KM-12 colorectal cancer cells; assay: antitumor activity, sulforhodamine B cell growth assay, KM-12
Outline: as §1

DMS273 lung cancer cells = assay: antitumor activity, sulforhodamine B cell growth assay, DMS273
Outline: as §1

[8] = test system: HBC-4 breast cancer cells; assay: antitumor activity, sulforhodamine B cell growth assay, HBC-4
Outline: as §1

[9] = test system: HBC-5 breast cancer cells; assay: antitumor activity, sulforhodamine B cell growth assay, HBC-5
Outline: as §1

[10] = test system: NCI-H460 lung cancer cells; assay: antitumor activity, sulforhodamine B cell growth assay, NCI-H460
Outline: as §1

[11] = test system: SNB-78 central nervous system cancer cells; assay: antitumor activity, sulforhodamine B cell growth assay, SNB-78
Outline: as §1

DMS114 lung cancer cells = assay: antitumor activity, sulforhodamine B cell growth assay, DMS114
Outline: as §1

LOX-IMVI melanoma cells = assay: antitumor activity, sulforhodamine B cell growth assay, LOX-IMVI
Outline: as §1

[12] = test system: HCT-116 colorectal cancer cells; assay: antitumor activity, sulforhodamine B cell growth assay, HCT-116
Outline: as §1

[13] = test system: HCT-15 colorectal cancer cells; assay: antitumor activity, sulforhodamine B cell growth assay, HCT-15
Outline: as §1

[14] = test system: St-4 gastric cancer cells; assay: antitumor activity, sulforhodamine B cell growth assay, St-4
Outline: as §1

[15] = test system: MKN-B gastric cancer cells; assay: antitumor activity, sulforhodamine B cell growth assay, MKN-B
Outline: as §1

[16] = test system: various cancer cell lines; assay: Verification of antitumor activity, whole panel of cancer cell lines; conditions: in words, compared with Cyanosafracin B
Experimental: as §2, §3, §4, §5

OVCAR-3 cancer cells = assay: antitumor activity, sulforhodamine B cell growth assay, OVCAR-3
Experimental: as §2, §3, §4, §5

[17] = Homo sapiens, ACHN kidney cancer cells, read-out: antitumor activity GI50 value: 50% growth inhibitory concentration
[18] = BSY-1 breast cancer cells, read-out: antitumor activity GI50 value: 50% growth inhibitory concentration
[19] = Homo sapiens, SF-268 central nervous system cancer cells, read-out: antitumor activity GI50 value: 50% growth inhibitory concentration
[20] = Homo sapiens, U-251, U251 central nervous system cancer cells, read-out: antitumor activity GI50 value: 50% growth inhibitory concentration
[21] = Homo sapiens, MKN-1, MKN1 gastric cancer cells, read-out: antitumor activity GI50 value: 50% growth inhibitory concentration
[22] = Homo sapiens, OVCAR-8 cervical cancer cells, read-out: antitumor activity GI50 value: 50% growth inhibitory concentration
[23] = Homo sapiens, MKN-45, MKN45 gastric cancer cells, read-out: antitumor activity GI50 value: 50% growth inhibitory concentration
[24] = Homo sapiens, HCC 2998, HCC2998 colorectal cancer cells, read-out: antitumor activity GI50 value: 50% growth inhibitory concentration
[25] = Homo sapiens, KM12, KM-12 colorectal cancer cells, read-out: antitumor activity GI50 value: 50% growth inhibitory concentration
[26] = Homo sapiens, DMS-273, DMS273 lung cancer cells, read-out: antitumor activity GI50 value: 50% growth inhibitory concentration
[27] = HBC4, HBC-4 breast cancer cells, read-out: antitumor activity GI50 value: 50% growth inhibitory concentration
[28] = HBC5, HBC-5 breast cancer cells, read-out: antitumor activity GI50 value: 50% growth inhibitory concentration
[29] = Homo sapiens, NCI-H460, NCl--H460 lung cancer cells, read-out: antitumor activity GI50 value: 50% growth inhibitory concentration
[30] = Homo sapiens, SNB-78 central nervous system cancer cells, read-out: antitumor activity GI50 value: 50% growth inhibitory concentration
[31] = Homo sapiens, DMS-114, DMS114 lung cancer cells, read-out: antitumor activity GI50 value: 50% growth inhibitory concentration
[32] = Homo sapiens, LOX-IMVI melanoma cells, read-out: antitumor activity GI50 value: 50% growth inhibitory concentration
[33] = Homo sapiens, HCT-116 colorectal cancer cells, read-out: antitumor activity GI50 value: 50% growth inhibitory concentration
[34] = Homo sapiens, HCT-15 colorectal cancer cells, read-out: antitumor activity GI50 value: 50% growth inhibitory concentration
[35] = SI-4 gastric cancer cells, read-out: antitumor activity GI50 value: 50% growth inhibitory concentration
[36] = MKN-B gastric cancer cells, read-out: antitumor activity GI50 value: 50% growth inhibitory concentration
[37] = Homo sapiens, OVCAR-3 cervical cancer cells, read-out: antitumor activity GI50 value: 50% growth inhibitory concentration

COc1c(C)cc2c(c1O)C1C3Cc4c5c(C)c6c(c4C(CNC(=O)C(C)NCC=CCO5)N3C(C#N)C(C2)N1C)OCO6 (stereo not drawn) [Compound 42]
GI50 (ACHN kidney cancer cells; ACHN, drug exposure 48 hours, read-out: GI50 value: 50% growth inhibitory concentration): 42 nM
GI50 ([1]; BSY-1, drug exposure 48 hours, read-out: GI50 value: 50% growth inhibitory concentration): < 10 nM
GI50 ([2]; SF-268, drug exposure 48 hours, read-out: GI50 value: 50% growth inhibitory concentration): 27 nM
GI50 ([3]; U251, drug exposure 48 hours, read-out: GI50 value: 50% growth inhibitory concentration): 13 nM
GI50 ([4]; MKN1, drug exposure 48 hours, read-out: GI50 value: 50% growth inhibitory concentration): 18 nM
GI50 (OVCAR-8 cancer cells; OVCAR-8, drug exposure 48 hours, read-out: GI50 value: 50% growth inhibitory concentration): 34 nM
GI50 ([5]; MKN45, drug exposure 48 hours, read-out: GI50 value: 50% growth inhibitory concentration): 16 nM
GI50 ([6]; HCC2998, drug exposure 48 hours, read-out: GI50 value: 50% growth inhibitory concentration): 18 nM
GI50 ([7]; KM-12, drug exposure 48 hours, read-out: GI50 value: 50% growth inhibitory concentration): 19 nM
GI50 (DMS273 lung cancer cells; DMS273, drug exposure 48 hours, read-out: GI50 value: 50% growth inhibitory concentration): 16 nM
GI50 ([8]; HBC-4, drug exposure 48 hours, read-out: GI50 value: 50% growth inhibitory concentration): < 10 nM
GI50 ([9]; HBC-5, drug exposure 48 hours, read-out: GI50 value: 50% growth inhibitory concentration): 17 nM
GI50 ([10]; NCI-H460, drug exposure 48 hours, read-out: GI50 value: 50% growth inhibitory concentration): 22 nM
GI50 ([11]; SNB-78, drug exposure 48 hours, read-out: GI50 value: 50% growth inhibitory concentration): 11 nM
GI50 (DMS114 lung cancer cells; DMS114, drug exposure 48 hours, read-out: GI50 value: 50% growth inhibitory concentration): < 10 nM
GI50 (LOX-IMVI melanoma cells; LOX-IMVI, drug exposure 48 hours, read-out: GI50 value: 50% growth inhibitory concentration): < 10 nM
GI50 ([12]; HCT-116, drug exposure 48 hours, read-out: GI50 value: 50% growth inhibitory concentration): 21 nM
GI50 ([13]; HCT-15, drug exposure 48 hours, read-out: GI50 value: 50% growth inhibitory concentration): 47 nM
GI50 ([14]; St-4 (SI-4 in Tables 2-11), drug exposure 48 hours, read-out: GI50 value: 50% growth inhibitory concentration): 37 nM
GI50 ([15]; MKN-B, drug exposure 48 hours, read-out: GI50 value: 50% growth inhibitory concentration): 25 nM
antitumor activity [16]: better antitumor activity than Cyanosafracin B
GI50 (OVCAR-3 cancer cells; OVCAR-3, drug exposure 48 hours, read-out: GI50 value: 50% growth inhibitory concentration): 15 nM

C#CCN1C/C=C/COc2c(C)c3c(c4c2C[C@H]2[C@H]5c6c(cc(C)c(OC)c6O)C[C@@H]([C@H](C#N)N2C4CNC(=O)[C@@H]1C)N5C)OCO3 [Compound 44]
GI50 (ACHN kidney cancer cells; [17]): < 10 nM
GI50 [1, 18]: < 10 nM
GI50 [2, 19]: < 10 nM
GI50 [3, 20]: < 10 nM
GI50 [4, 21]: < 10 nM
GI50 (OVCAR-8 cancer cells; [22]): < 10 nM
GI50 [5, 23]: < 10 nM
GI50 [6, 24]: < 10 nM
GI50 [7, 25]: < 10 nM
GI50 (DMS273 lung cancer cells; [26]): < 10 nM
GI50 [8, 27]: < 10 nM
GI50 [9, 28]: < 10 nM
GI50 [10, 29]: < 10 nM
GI50 [11, 30]: < 10 nM
GI50 (DMS114 lung cancer cells; [31]): < 10 nM
GI50 (LOX-IMVI melanoma cells; [32]): < 10 nM
GI50 [12, 33]: < 10 nM
GI50 [13, 34]: < 10 nM
GI50 [14, 35]: < 10 nM
GI50 [15, 36]: < 10 nM
antitumor activity [16]: better antitumor activity than Cyanosafracin B
GI50 (OVCAR-3 cancer cells; [37]): < 10 nM

C#CCN1C(=O)[C@H]2[C@@H]3C=C(COc4c(C)c5c(c6c4C[C@H]4[C@H]7c8c(cc(C)c(OC)c8O)C[C@@H]([C@H](C#N)N4C6CNC(=O)[C@H](C)NC(=O)OC3)N7C)OCO5)C[C@H]2C1=O [Compound 47]
GI50 (ACHN kidney cancer cells; [17]): 2600 nM
GI50 [1, 18]: 150 nM
GI50 [2, 19]: 620 nM
GI50 [3, 20]: 350 nM
GI50 [4, 21]: 290 nM
GI50 (OVCAR-8 cancer cells; [22]): 1100 nM
GI50 [5, 23]: 470 nM
GI50 [6, 24]: 410 nM
GI50 [7, 25]: 450 nM
GI50 (DMS273 lung cancer cells; [26]): 450 nM
GI50 [8, 27]: 200 nM
GI50 [9, 28]: 300 nM
GI50 [10, 29]: 630 nM
GI50 [11, 30]: 260 nM
GI50 (DMS114 lung cancer cells; [31]): 31 nM
GI50 (LOX-IMVI melanoma cells; [32]): 160 nM
GI50 [12, 33]: 450 nM
GI50 [13, 34]: 2200 nM
GI50 [14, 35]: 2200 nM
GI50 [15, 36]: 730 nM
antitumor activity [16]: better antitumor activity than Cyanosafracin B
GI50 (OVCAR-3 cancer cells; [37]): 330 nM
